Test results taken from patent US8273775B2, “Non-steroidal brassinosteroid mimetic” (priority 2006, dated 2012).

Tested on: gene expression in Col-0 seedling shoots
Assay: Microarray analysis (ATH1 Affymetrix) after BL or abrasin treatment
Assay type: in vivo, Arabidopsis
Conditions: 120 min
Procedure: FIG. 14: Clustering of gene expression profiles by QT-clust analysis. Clusters illustrating the major patterns of the data sets. Points: BIK-30: 30 μM abrasin 30 min; BL-30: 1 μM brassinolide 30 min; DMSO-30: control DMSO 30 min; BIK-120: 30 μM abrasin 120 min; BL-120: 1 μM brassinolide 120 min; DMSO-120: control DMSO 120 min.
Col-0 seeds were germinated vertically on ½ MS medium for 7 days under 16 h light/8 h dark cycles. The seedlings were overlaid with liquid ½ MS medium containing 1 μM brassinolide (BL, Fuji Chemical Industries, Ltd., Toyama, Japan), 30 μM abrasin (BIK, ChemBridge Corporation) and DMSO and treated for 30 and 120 min. The shoot parts were collected for RNA isolation. All sampling points were performed in three independent experiments. RNA was extracted using RNeasy kit (Qiagene). […] total RNA per array was used to hybridise the ATH1 Affymetrix Arabidopsis arrays according to standard procedure. The overrepresentation analyses were performed using BiNGO software (Maere et al., 2005).
We performed a microarray analysis using the Arabidopsis whole genome chip (Affymetix) to determine whether abrasin activated the expression of BR-inducible genes at transcriptional level. Wild-type Col-0 seedlings were exposed to 1 μM BL, 30 μM ABRASIN and DMSO (mock-treatment) for two time points (30 min and 120 min) and the shoot parts were collected for RNA isolation. The analysis of the variance of the normalized gene expression data took in account the variability parameters affecting the expression level: type of hormone treatment, duration of treatment and the interaction between these two.

CC(C)[C@H](C)[C@@H](O)[C@H](O)[C@@H](C)[C@H]1CC[C@H]2[C@@H]3COC(=O)[C@H]4C[C@H](O)[C@H](O)C[C@]4(C)[C@H]3CC[C@]12C [BL, brassinolide, reference compound]
Fold-change AT4G16780 homeobox-leucine zipper protein 4 (HAT4)/HD-ZIP protein: 0.51
Fold-change AT4G17250 expressed protein: 1.82
Fold-change AT4G17460 homeobox-leucine zipper protein 1 (HAT1)/HD-ZIP protein 1: 0.19
Fold-change AT4G21510 F-box family protein: 2.09
Fold-change AT4G23030 MATE efflux protein-related: 2.20
Fold-change AT4G23070 rhomboid family protein: 2.03
Fold-change AT4G23810 WRKY family transcription factor: 0.55
Fold-change AT4G24160 hydrolase, alpha/beta fold family protein: 1.14
Fold-change AT4G25620 hydroxyproline-rich glycoprotein family protein: 0.86
Fold-change AT4G25780 pathogenesis-related protein: 0.26
Fold-change AT4G27970 C4-dicarboxylate transporter/malic acid transport family protein: 1.28
Fold-change AT4G28240 wound-responsive protein-related: 0.41
Fold-change AT4G28490 leucine-rich repeat transmembrane protein kinase, putative: 0.78
Fold-change AT4G28703 expressed protein: 0.89
Fold-change AT4G28780 GDSL-motif lipase/hydrolase family protein: 2.29
Fold-change AT4G29070 expressed protein: 0.74
Fold-change AT4G30080 transcriptional factor B3 family protein: 0.49
Fold-change AT4G31020 expressed protein: 0.67
Fold-change AT4G32280 auxin-responsive AUX/IAA family protein (IAA29): 0.22
Fold-change AT4G33050 calmodulin-binding family protein: 0.57
Fold-change AT4G33700 CBS domain-containing protein: 0.51
Fold-change AT4G34610 homeodomain-containing protein: 0.37
Fold-change AT4G36110 auxin-responsive protein: 7.86
Fold-change AT4G36780 brassinosteroid signalling positive regulator-related: 0.09
Fold-change AT4G37240 expressed protein: 2.33
Fold-change AT4G37290 expressed protein: 0.40
Fold-change AT4G37590 phototropic-responsive NPH3 family protein: 0.53
Fold-change AT4G38840 auxin-responsive protein (SAUR14): 2.53
Fold-change AT4G38850 auxin-responsive protein (SAUR-AC1): 3.03
Fold-change AT4G38860 auxin-responsive protein (SAUR16): 3.40
Fold-change AT4G39400 brassinosteroid insensitive 1 (BRI1): 0.57
Fold-change AT5G02020 expressed protein: 0.96
Fold-change AT5G05690 cytochrome P450 90A1 (CYP90A1) (CYP90) (CPD): 0.41
Fold-change AT5G07690 myb family transcription factor (MYB29): 0.40
Fold-change AT5G08130 basic helix-loop-helix (bHLH) family protein (BIM2): 0.42
Fold-change AT5G12050 expressed protein: 0.34
Fold-change AT5G13180 no apical meristem (NAM) family protein: 0.50
Fold-change AT5G13740 sugar transporter family protein: 0.36
Fold-change AT5G14730 expressed protein: 0.55
Fold-change AT5G16200 50S ribosomal protein-related: 0.20
Fold-change AT5G16980 NADP-dependent oxidoreductase: 1.26
Fold-change AT5G18750 DNAJ heat shock N-terminal domain-containing protein: 0.56
Fold-change AT5G19200 short-chain dehydrogenase/reductase (SDR) family protein: 2.47
Fold-change AT5G19340 expressed protein: 0.39
Fold-change AT5G24030 C4-dicarboxylate transporter/malic acid transport family protein: 1.90
Fold-change AT5G24660 expressed protein: 2.26
Fold-change AT5G25240 expressed protein: 3.69
Fold-change AT5G25930 leucine-rich repeat family protein: 0.63
Fold-change AT5G27350 sugar-porter family protein 1 (SFP1): 2.04
Fold-change AT5G27670 histone H2A: 0.50
Fold-change AT5G38310 expressed protein: 0.93
Fold-change AT5G38990; AT5G39000 [AT5G38990, protein kinase family protein: 0.74
Fold-change AT5G39050 transferase family protein: 0.62
Fold-change AT5G39610 no apical meristem (NAM) family protein: 0.22
Fold-change AT5G39970 expressed protein: 0.99
Fold-change AT5G42830 transferase family protein: 0.62
Fold-change AT5G47370 homeobox-leucine zipper protein 2 (HAT2): 0.87
Fold-change AT5G48070 putative xyloglucan endotransglycosylase/hydrolase: 1.24
Fold-change AT5G48540 33 kDa secretory protein-related: 0.55
Fold-change AT5G51550 phosphate-responsive 1 family protein: 0.37
Fold-change AT5G54490 calcium-binding EF-hand protein, putative: 1.75
Fold-change AT5G54860 integral membrane transporter family protein: 0.82
Fold-change AT5G55970 zinc finger (C3HC4-type RING finger) family protein: 1.82
Fold-change AT5G56980 expressed protein: 0.20
Fold-change AT5G57190 phosphatidylserine decarboxylase: 0.60
Fold-change AT5G57780 expressed protein: 0.12
Fold-change AT5G59080 expressed protein: 0.53
Fold-change AT5G60200 Dof-type zinc finger domain-containing protein: 1.67
Fold-change AT5G60270 lectin protein kinase family protein: 1.82
Fold-change AT5G60630 expressed protein: 1.15
Fold-change AT5G61600 encodes a member of the ERF (ethylene response factor): 2.06
Fold-change AT5G62360 invertase/pectin methylesterase inhibitor family protein: 0.45
Fold-change AT5G65310 homeobox-leucine zipper protein 5 (HB-5)/HD-ZIP transcription factor 5: 0.27
Fold-change AT5G66420 expressed protein: 0.43
Fold-change AT5G66590 allergen V5/Tpx-1-related family protein: 0.58
Fold-change AT5G67450 zinc finger (C2H2 type) protein 1 (AZF1): 0.89
Fold-change of gene AT4G16140 (proline-rich family protein) (245479_at, Cluster 6): 0.75
Fold-change of gene AT4G15260 (UDP-glucoronosyl/UDP-glucosyl transferase family protein) (245543_at, Cluster 7): 0.67
Fold-change of gene AT5G09440 (phosphate-responsive protein, putative) (245885_at, Cluster 5): 0.13
Fold-change of gene AT1G77380 (amino acid carrier) (246389_at, Cluster 10): 0.40
Fold-change of gene AT5G15740 (expressed protein) (246516_at, Cluster 5): 0.69
Fold-change of gene AT5G65300 (expressed protein) (247177_at, Cluster 5): 0.36
Fold-change of gene AT5G64890 (expressed protein) (247205_at, Cluster 10): 0.85
Fold-change of gene AT5G63790 (no apical meristem (NAM) family protein) (247351_at, Cluster 9): 0.27
Fold-change of gene AT5G62630 (expressed protein) (247444_at, Cluster 7): 1.26
Fold-change of gene AT5G60850 (Dof-type zinc finger domain-containing protein) (247601_at, Cluster 10): 1.10
Fold-change of gene AT5G59510 (expressed protein) (247704_at, Cluster 9): 0.13
Fold-change of gene AT5G58660 (oxidoreductase. 2OG-Fe(II) oxygenase family protein) (247774_at, Cluster 5): 2.85
Fold-change of gene AT5G54120 (expressed protein) (248190_at, Cluster 5): 0.94
Fold-change of gene AT5G54130 (calcium-binding EF hand family protein) (248191_at, Cluster 5): 0.88
Fold-change of gene AT5G52900 (expressed protein) (248282_at, Cluster 6): 0.50
Fold-change of gene AT5G49100 (expressed protein) (248646_at, Cluster 9): 0.38
Fold-change of gene AT5G18060 (auxin-responsive protein) (250012_x_at, Cluster 6): 0.28
Fold-change of gene AT5G09800 (U-box domain-containing protein) (250493_at, Cluster 9): 0.30
Fold-change of gene AT5G08565 (expressed protein) (250537_at, Cluster 8): 0.78
Fold-change of gene AT5G03670 (expressed protein) (250907_at, Cluster 5): 0.37
Fold-change of gene AT5G01740 (expressed protein) (251072_at, Cluster 5): 0.47
Fold-change of gene AT3G63380 (calcium-transporting ATPase) (251176_at, Cluster 10): 0.10
Fold-change of gene AT3G60690 (auxin-responsive family protein) (251342_at, Cluster 9): 0.27
Fold-change of gene AT3G45610 (Dof-type zinc finger domain) (252586_at, Cluster 10): 1.05
Fold-change of gene AT3G44610 (protein kinase family protein) (252646_at, Cluster 5): 1.03
Fold-change of gene AT4G34760 (auxin-responsive family protein) (253255_at, Cluster 6): 0.62
Fold-change of gene AT4G34138 (UDP-glucoronosyl/UDP-glucosyl transferase family protein) (253281_at, Cluster 7): 1.74
Fold-change of gene AT4G31910 (transferase family protein) (253483_at, Cluster 5): 0.78
Fold-change of gene AT4G30410 (expressed protein) (253617_at, Cluster 5): 0.45
Fold-change of gene AT4G30450 (glycine-rich protein) (253629_at, Cluster 5): 0.59
Fold-change of gene AT4G26200 (1-aminocyclopropane-1-carboxylate synthase) (253999_at, Cluster 9): 0.11
Fold-change of gene AT4G03400 (auxin-responsive GH3 family protein) (255403_at, Cluster 6): 0.48
Fold-change of gene AT4G02700 (sulfate transporter) (255443_at, Cluster 7): 1.20
Fold-change of gene AT1G22190 (AP2 domain-containing transcription factor) (255926_at, Cluster 8): 0.89
Fold-change of gene AT1G66140 (zinc finger (C2H2 type) family protein) (256528_at, Cluster 6): 0.46
Fold-change of gene AT3G25655 (expressed protein) (256762_at, Cluster 8): 0.12
Fold-change of gene AT3G21420 (oxidoreductase, 2OG-Fe(II) oxygenase family protein) (256818_at, Cluster 7): 1.29
Fold-change of gene AT3G18280 (protease inhibitor/seed storage/lipid transfer protein) (257066_at, Cluster 5): 0.92
Fold-change of gene AT1G29440 (auxin-responsive family protein) (257506_at, Cluster 6): 0.34
Fold-change of gene AT3G29200 (chorismate mutase, chloroplast (CM1)) (257746_at, Cluster 5): 0.66
Fold-change of gene AT1G13260 (DNA-binding protein RAV1 (RAV1)) (259364_at, Cluster 8): 0.67
Fold-change of gene AT1G29500 (auxin-responsive protein) (259773_at, Cluster 6): 0.39
Fold-change of gene AT1G29510 (auxin-responsive protein) (259783_at, Cluster 6): 0.36
Fold-change of gene AT1G29450 (auxin-responsive protein) (259784_at, Cluster 6): 0.37
Fold-change of gene AT1G29460 (auxin-responsive protein) (259787_at, Cluster 6): 0.28
Fold-change of gene AT1G76690; AT1G76680 ([AT1G76690, 12-oxophytodienoate reductase (OPR2)) (259875_s_at, Cluster 7): 0.89
Fold-change of gene AT1G76620 (expressed protein) (259985_at, Cluster 8): 0.37
Fold-change of gene AT1G63720 (expressed protein) (260243_at, Cluster 10): 0.17
Fold-change of gene AT1G48100 (glycoside hydrolase family 28 protein) (260727_at, Cluster 8): 1.16
Fold-change of gene AT1G12200 (flavin-containing monooxygenase family protein) (261023_at, Cluster 7): 1.40
Fold-change of gene AT1G12845 (expressed protein) (261203_at, Cluster 6): 0.47
Fold-change of gene AT1G15550 (gibberellin 3-beta-dioxygenase) (261768_at, Cluster 6): 0.52
Fold-change of gene AT1G80840 (WRKY family transcription factor) (261892_at, Cluster 9): 0.05
Fold-change of gene AT1G80080 (leucine-rich repeat family protein) (262040_at, Cluster 6): 0.39
Fold-change of gene AT1G80130 (expressed protein) (262050_at, Cluster 8): 0.36
Fold-change of gene AT1G21680 (expressed protein) (262505_at, Cluster 10): 1.29
Fold-change of gene AT1G34245 (expressed protein) (262543_at, Cluster 6): 0.67
Fold-change of gene AT1G78460 (SOUL heme-binding family protein) (263126_at, Cluster 7): 1.49
Fold-change of gene AT1G78820; AT1G78830 ([AT1G78820, curculin-like (mannose-binding) lectin family protein) (264279_s_at, Cluster 7): 0.86
Fold-change of gene AT2G42380 (bZIP transcription factor family protein) (265877_at, Cluster 6): 0.39
Fold-change of gene AT2G45080 (cyclin family protein) (266124_at, Cluster 8): 0.27
